pIC50: −log10 of the molar value.
What was measured:
[1] = tested on: Beta-TC6; test: Percent efficacy for inhibition of glucose stimulated insulin release from beta TC6 cells; format: functional, Mus musculus
[2] = inhibitory concentration required for repolarization of beta cell membrane potential in presence of 10 mM glucose; format: functional, Homo sapiens; details: for pIC50: Homo sapiens, read-out: IC50
[3] = tested on: Beta-TC6; test: Concentration required for inhibition of glucose stimulated insulin release from beta TC6 cells; format: functional, cell-based, Mus musculus; details: for pIC50: Mus musculus, Beta-TC6, read-out: IC50; for IC50: beta-tc6
[4] = tested on: HEK293; test: Potency by repolarisation of tolbutamide-depolarised membrane potential in HEK 293 cells; details: Homo sapiens

Row | pIC50 [2] | pIC50 [3] | IC50 [2] | IC50 [3] | Compound | Efficacy [1] [%] | pIC50 [4]
1 | 6.60 | 6.34 | – | – | CC(C)NC1=NS(=O)(=O)c2cc(Cl)ccc2N1 | 75 | 6.10
2 | 5.47 | 5.80 | – | – | COc1ccc(NC(=O)c2cc([N+](=O)[O-])ccc2Oc2ccc(OC)cc2)cc1 | 73 | –
3 | – | 4.98 | No significant activity | – | COc1ccc(Oc2ccc([N+](=O)[O-])cc2C(=O)Nc2ccccc2S(N)(=O)=O)cc1 | 33 | –
4 | 5.08 | 4.98 | – | – | CCN(C(=O)c1cc([N+](=O)[O-])ccc1Oc1ccc(OC)cc1)c1ccc(Cl)cc1 | 56 | –
5 | 5.09 | 5.95 | – | – | COc1ccc(Oc2ccc([N+](=O)[O-])cc2C(=O)Nc2ccc(C(C)=O)cc2)cc1 | 75 | –
6 | – | 4.57 | No significant activity | – | COc1ccc(Nc2ccc([N+](=O)[O-])cc2C(=O)Nc2ccc(S(N)(=O)=O)cc2)cc1 | 1 | –
7 | 5.60 | 4.31 | – | – | COc1ccc(NC(=O)c2cc(C#N)ccc2Oc2ccc(OC)cc2)cc1 | 17 | –
8 | 5.14 | 5.25 | – | – | COc1ccc(Oc2ccc([N+](=O)[O-])cc2C(=O)Nc2ccc(F)cc2)cc1 | 52 | –
9 | – | – | No significant activity | No significant activity | COc1ccc(NC(=O)c2ccccc2Oc2ccccc2)cc1 | – | –
10 | 5.00 | 4.69 | – | – | COc1ccc(Oc2ccc([N+](=O)[O-])cc2C(=O)Nc2cccc(S(N)(=O)=O)c2)cc1 | 31 | –
11 | 5.74 | 6.09 | – | – | COc1ccc(Oc2ccc([N+](=O)[O-])cc2C(=O)Nc2ccc(S(N)(=O)=O)cc2)cc1 | 79 | 5.89
12 | – | – | No significant activity | No significant activity | COc1ccc(NC(=O)c2cc(N)ccc2Oc2ccc(OC)cc2)cc1 | – | –
13 | 5.00 | 4.59 | – | – | COc1ccc(Oc2ccc([N+](=O)[O-])cc2C(=O)N(C)c2ccc(Cl)cc2)cc1 | 33 | –
14 | 4.86 | 4.64 | – | – | CC1=Nc2ccc(Cl)cc2S(=O)(=O)N1 [DIAZOXIDE] | 25 | 4.48
15 | 6.22 | 6.60 | – | – | CC1(NC2=NS(=O)(=O)c3sc(Cl)cc3N2)CC1 [TIFENAZOXIDE] | 73 | –

Source: ChEMBL document CHEMBL1138641, “2-(4-Methoxyphenoxy)-5-nitro-N-(4-sulfamoylphenyl)benzamide activates Kir6.2/SUR1 K(ATP) channels” (Bioorg Med Chem Lett, 2004)
